We go through one molecule from paper PMC5826917, “A small molecule inhibitor of Nicotinamide N-methyltransferase for the treatment of metabolic disorders” (Scientific Reports, 2018).

The test system of data set [1] is Nicotinic AChR Receptor Muscle-Type. Put plainly: Selectivity panel: nAChR muscle-type. Particulars: 10 µM. It counts as binding.
The target in data set [2] is Acetylcholinesterase (AChE) (Homo sapiens, UniProt P22303). Put plainly: Selectivity panel: AChE. It counts as biochemical. Particulars: read-out: I% (antagonistic or inhibitory), AChE. Here is the method:
(§1) Supplement 41598_2018_22081_MOESM1_ESM.docx, table 2: Supplementary table 2: Selectivity profile of JBSNF-000088 (at 10 µM) vs a panel of 34 receptors, channels and enzymes. | column: I% (antagonistic or inhibitory)

For data set [3] the following is noted: 0.5 h.
In a further data set the target is Dopamine Transporter (Homo sapiens, UniProt Q01959). Put plainly: Selectivity panel: dopamine transporter. It counts as binding. To be noted: read-out: I% (antagonistic or inhibitory), Dopamine Transporter. Here is the method:
as §1

For the next data set, the target named is T1, mouse NNMT (mNNMT) (Mus musculus, UniProt O55239).
T1 construct: The full length NNMT proteins (1–264 amino acids) of human & mouse; 6 × His tag (N); TEV cleavage site (ENLYFQG) (N); made in house; host or cells: E. coli Rosetta2(DE3)pLysS
In words: Fluorescence based NNMT enzymatic assay (mouse). Particulars: fluorescence based biochemical assay. The procedure: NNMT activity was measured with the fluorescence enzymatic assay[22],[23]. MNA formed in the NNMT reaction reacts with acetophenone in the presence of KOH and formic acid and forms a fluorescent product 2, 7- naphthyridine. JBSNF-000088 was screened using human, mouse and monkey NNMT enzymes. Different concentrations of inhibitors were preincubated along with the enzyme for 30 minutes at room temperature. Reaction was initiated by addition of SAM and nicotinamide mixture (7 µM, 20 µM, 8 µM SAM and 6 µM, 20 µM, 9 µM nicotinamide for human, mouse and monkey NNMT assays respectively) for 60 minutes at 37 °C. The final assay reaction mixture contained a buffer of 100 mM Tris Hcl pH 7.5, 0.04% BSA, 2 mM dithiothreitol and 1% DMSO. At the end of the incubation, the reaction was stopped by the addition of ethanol: acetophenone mix (75% ethanol: 25% acetophenone) and 5 M potassium hydroxide prepared with 50% ethanol. The reaction was incubated for 15 minutes following which 100 µL of 60% formic acid was added. […] The fluorescent product 2, 7- naphthyridine was measured using a Tecan reader with excitation at 375 nm and emission at 430 nm. The IC50 values were determined by fitting the inhibition curves (percent inhibition versus inhibitor concentration) using a four parametric sigmoidal dose response using GraphPad Prism software.

Data set [4] has as its target Cannabinoid Receptor 1 (CB1) (Homo sapiens, UniProt P21554). In words: Selectivity panel: CB1. It counts as cell-based. The procedure: Supplement 41598_2018_22081_MOESM1_ESM.docx, table 2: Supplementary table 2: Selectivity profile of JBSNF-000088 (at 10 µM) vs a panel of 34 receptors, channels and enzymes. | column: E% (agonistic); I% (antagonistic or inhibitory)

The nature of the next data set: in vivo. To be noted: C57BL/6, mouse.

What is called IC50 is the concentration that gives 50% inhibition. The low end stands for greater potency, the high end for weaker potency. What is called Vd is a proportionality between amount in the body and measured concentration, not a real space. What is called bioavailability is dose-corrected exposure relative to a reference, in per cent. A low value points to poor availability. As usually defined, the clearance is the rate of elimination divided by the concentration. Usually half-life stands for the time in which the quantity being followed falls by half. A high value points to slow loss. In general, Cmax refers to the peak of the concentration-time curve. The term Tmax denotes the time at which the peak concentration occurs.

Chain of Cannabinoid Receptor 1 (CB1) (P21554 whole entry): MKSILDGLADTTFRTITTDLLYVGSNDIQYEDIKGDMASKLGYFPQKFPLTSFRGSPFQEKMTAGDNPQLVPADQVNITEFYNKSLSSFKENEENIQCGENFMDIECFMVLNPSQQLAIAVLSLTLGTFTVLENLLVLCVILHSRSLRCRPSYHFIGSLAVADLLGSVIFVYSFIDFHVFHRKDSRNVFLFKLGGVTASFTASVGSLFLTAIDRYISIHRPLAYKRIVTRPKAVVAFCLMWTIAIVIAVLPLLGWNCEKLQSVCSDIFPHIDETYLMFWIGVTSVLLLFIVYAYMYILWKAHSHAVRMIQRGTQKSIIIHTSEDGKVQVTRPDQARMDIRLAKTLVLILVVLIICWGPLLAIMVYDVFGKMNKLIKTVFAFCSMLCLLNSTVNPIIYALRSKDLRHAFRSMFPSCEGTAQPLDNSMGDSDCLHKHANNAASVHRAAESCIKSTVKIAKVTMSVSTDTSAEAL
Chain of Dopamine Transporter (Q01959 whole entry): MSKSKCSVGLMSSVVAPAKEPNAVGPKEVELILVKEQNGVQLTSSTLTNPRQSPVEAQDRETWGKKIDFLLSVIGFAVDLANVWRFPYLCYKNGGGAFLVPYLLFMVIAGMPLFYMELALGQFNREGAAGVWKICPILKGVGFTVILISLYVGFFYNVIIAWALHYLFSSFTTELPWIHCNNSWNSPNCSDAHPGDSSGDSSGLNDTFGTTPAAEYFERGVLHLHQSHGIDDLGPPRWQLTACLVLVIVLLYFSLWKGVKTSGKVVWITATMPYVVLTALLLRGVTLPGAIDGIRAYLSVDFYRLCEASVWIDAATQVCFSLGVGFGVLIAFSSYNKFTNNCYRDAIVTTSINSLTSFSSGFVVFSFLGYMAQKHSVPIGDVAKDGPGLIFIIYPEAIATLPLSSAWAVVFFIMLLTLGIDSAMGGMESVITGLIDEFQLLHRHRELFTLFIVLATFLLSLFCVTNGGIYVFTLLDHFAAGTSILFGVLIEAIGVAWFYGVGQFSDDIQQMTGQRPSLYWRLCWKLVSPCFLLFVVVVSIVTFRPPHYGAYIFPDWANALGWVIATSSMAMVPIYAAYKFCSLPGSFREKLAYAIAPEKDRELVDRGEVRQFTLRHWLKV
Chain of Acetylcholinesterase (AChE) (P22303 32-614): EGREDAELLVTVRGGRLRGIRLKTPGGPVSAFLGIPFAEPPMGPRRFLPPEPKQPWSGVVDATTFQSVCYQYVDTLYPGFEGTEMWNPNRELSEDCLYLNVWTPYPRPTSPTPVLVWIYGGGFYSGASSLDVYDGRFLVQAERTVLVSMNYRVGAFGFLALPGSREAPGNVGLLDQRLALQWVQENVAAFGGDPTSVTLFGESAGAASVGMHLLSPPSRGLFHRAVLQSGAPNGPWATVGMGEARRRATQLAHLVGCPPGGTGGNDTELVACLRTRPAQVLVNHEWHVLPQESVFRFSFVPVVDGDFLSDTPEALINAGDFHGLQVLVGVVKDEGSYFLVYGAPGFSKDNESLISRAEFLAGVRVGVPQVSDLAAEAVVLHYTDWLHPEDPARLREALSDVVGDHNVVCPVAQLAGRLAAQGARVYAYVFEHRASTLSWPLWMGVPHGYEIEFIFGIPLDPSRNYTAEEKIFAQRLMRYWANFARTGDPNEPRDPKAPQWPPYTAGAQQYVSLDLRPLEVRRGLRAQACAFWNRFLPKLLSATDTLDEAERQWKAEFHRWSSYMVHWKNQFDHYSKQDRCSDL
T1 sequence (O55239 whole entry, the tested form may be a part): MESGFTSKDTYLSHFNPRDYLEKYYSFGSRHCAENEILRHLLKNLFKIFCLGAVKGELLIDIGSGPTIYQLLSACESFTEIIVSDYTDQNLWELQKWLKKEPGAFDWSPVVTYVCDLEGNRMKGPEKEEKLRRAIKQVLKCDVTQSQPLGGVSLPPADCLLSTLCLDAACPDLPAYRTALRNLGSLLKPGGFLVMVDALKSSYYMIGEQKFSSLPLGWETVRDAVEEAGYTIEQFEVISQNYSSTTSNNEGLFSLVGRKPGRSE

In the case of `COc1ccc(C(N)=O)cn1` [JBSNF-000088, 6-methoxynicotinamide], in data set [1], the “I% (antagonistic or inhibitory), Nicotinic AChR Receptor Muscle-Type” value is reported as -2%. Besides, the inhibition at 10 µM in data set [2] amounted to 2%. Moreover, the “Metabolic stability human microsomes (% remaining)” value in data set [3] worked out at 90%. The inhibition at 10 µM at Dopamine Transporter was 7%. At mouse NNMT (mNNMT), this molecule displayed an IC50 of 5 µM. The “E% (agonistic), CB1” value in data set [4] (10 µM) was 0%. Further, in data set [4] (read-out: I% (antagonistic or inhibitory), CB1), the inhibition at 10 µM came to 1%. Also, in the data set “in vivo”, the distribution volume (Vd) was found to be 0.69 L/kg, the bioavailability was determined as 43% and the clearance amounted to 20.5 mL/min/kg. In addition, in “in vivo” (iv), the clearance was 21 mL/min/kg and the half-life was 30 min. Moreover, in “in vivo” (po, 10 mg/kg), the Cmax is 3570 ng/mL, the Tmax came to 30 min, the bioavailability was roughly 40% and the half-life was 24 min.
